This passage reports IC50 results from ChEMBL document CHEMBL5053520, “Searching for an ideal SERM: Mining tamoxifen structure-activity relationships” (Bioorg Med Chem Lett, 2021).

This test concerns the target T1, Estrogen receptor (Homo sapiens, UniProt P03372).
T1 sequence (P03372 whole entry): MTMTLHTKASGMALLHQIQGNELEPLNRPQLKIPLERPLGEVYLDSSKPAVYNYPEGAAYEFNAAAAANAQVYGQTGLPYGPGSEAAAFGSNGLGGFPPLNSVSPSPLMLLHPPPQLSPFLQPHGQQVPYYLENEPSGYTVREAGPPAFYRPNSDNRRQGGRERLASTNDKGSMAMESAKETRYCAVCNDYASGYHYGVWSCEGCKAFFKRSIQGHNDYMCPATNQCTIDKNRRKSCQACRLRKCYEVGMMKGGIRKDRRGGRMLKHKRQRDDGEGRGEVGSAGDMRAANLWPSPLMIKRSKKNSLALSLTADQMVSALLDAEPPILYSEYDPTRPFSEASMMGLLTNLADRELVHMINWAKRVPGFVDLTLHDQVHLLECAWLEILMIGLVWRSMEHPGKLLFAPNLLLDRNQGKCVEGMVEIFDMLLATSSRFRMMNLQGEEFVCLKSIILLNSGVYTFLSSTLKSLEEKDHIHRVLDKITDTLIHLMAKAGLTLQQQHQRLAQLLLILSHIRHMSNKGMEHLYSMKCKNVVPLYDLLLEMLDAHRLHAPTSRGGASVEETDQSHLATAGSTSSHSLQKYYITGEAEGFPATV
Put plainly: Displacement of fluorescent labeled-ligand from ERalpha (unknown origin) by competitive binding assay.
Broadly, the IC50 is the point on the concentration scale where inhibition reaches its midpoint. On to `CC/C(=C(\c1ccccc1)c1cccc(OCCCN2CCCCC2)c1)c1ccccc1`, for which the IC50 was found to be 333 nM.

As for `CC/C(=C(\c1ccccc1)c1cccc(OCCCN(C)C)c1)c1ccccc1`, the IC50 was determined as 124 nM.

Compound `CC/C(=C(\c1ccc(O)cc1)c1cccc(OCCCN2CCCC2)c1)c1ccccc1` yielded an IC50 of 10.7 nM. Compared with the last compound, the IC50 is about 12-fold lower.

For `CC/C(=C(\c1ccc(O)cc1)c1cccc(OCCCN(C)C)c1)c1ccccc1`, the IC50 came out at 8.8 nM.

`CC/C(=C(\c1ccc(O)cc1)c1cccc(OCCCN2CCCCC2)c1)c1ccccc1`: the concentration for half-maximal inhibition (IC50) was determined as 39.1 nM.

Compound `CC/C(=C(\c1ccccc1)c1cccc(OCCCN2CCCC2)c1)c1ccccc1` displayed an IC50 of 359 nM.

As for `CC/C(=C(\c1ccccc1)c1cccc(OCCCN(CC)CC)c1)c1ccccc1`, the IC50 is 348 nM.

`CC/C(=C(\c1ccccc1)c1cccc(OCCN2CCCCC2)c1)c1ccccc1` came in with an IC50 of 422 nM.

The compound `CC/C(=C(\c1ccccc1)c1cccc(OCCN(C)C)c1)c1ccccc1` registered an IC50 of 255 nM.

In turn, `CC/C(=C(\c1ccc(O)cc1)c1cccc(OCCCN(CC)CC)c1)c1ccccc1` displayed an IC50 of 15.1 nM.

Take `CC/C(=C(\c1ccc(O)cc1)c1cccc(OCCN2CCCC2)c1)c1ccccc1`: the IC50 was 16.3 nM.

On to `CC/C(=C(\c1ccc(O)cc1)c1cccc(OCCN(CC)CC)c1)c1ccccc1`, for which the IC50 turned out to be 35.5 nM. Compared with the last compound, the IC50 is about 2.2-fold higher.

On to `CC/C(=C(\c1ccccc1)c1cccc(OCCN(CC)CC)c1)c1ccccc1`, for which the IC50 came out at 571 nM.

With `CC/C(=C(\c1ccccc1)c1cccc(OCCN2CCCC2)c1)c1ccccc1`, the IC50 is 81 nM.

Take `CC/C(=C(\c1ccc(O)cc1)c1cccc(OCCN(C)C)c1)c1ccccc1`: the IC50 turned out to be 24.3 nM.

On to `CC/C(=C(\c1ccc(O)cc1)c1cccc(OCCN2CCCCC2)c1)c1ccccc1`, for which the IC50 turned out to be 21 nM.
